Measurements: ChEMBL document CHEMBL1140460, “Design, synthesis, and biological evaluation of triazolopiperazine-based beta-amino amides as potent, orally active dipeptidyl peptidase IV (DPP-4) inhibitors” (Bioorg Med Chem Lett, 2007)

Columns and labels:
[1] = Oral bioavailability in rat; format: ADME, organism-based; settings: in vivo
[2] = Plasma clearance in rat; format: ADME, organism-based
[3] = (§1) Half life in rat; format: ADME, organism-based; settings: in vivo
Dipeptidyl peptidase 8 = Dipeptidyl peptidase 8 (Homo sapiens, UniProt Q6V1X1); test: Inhibition of DPP8
Dipeptidyl peptidase 8, sequence (Q6V1X1 whole entry): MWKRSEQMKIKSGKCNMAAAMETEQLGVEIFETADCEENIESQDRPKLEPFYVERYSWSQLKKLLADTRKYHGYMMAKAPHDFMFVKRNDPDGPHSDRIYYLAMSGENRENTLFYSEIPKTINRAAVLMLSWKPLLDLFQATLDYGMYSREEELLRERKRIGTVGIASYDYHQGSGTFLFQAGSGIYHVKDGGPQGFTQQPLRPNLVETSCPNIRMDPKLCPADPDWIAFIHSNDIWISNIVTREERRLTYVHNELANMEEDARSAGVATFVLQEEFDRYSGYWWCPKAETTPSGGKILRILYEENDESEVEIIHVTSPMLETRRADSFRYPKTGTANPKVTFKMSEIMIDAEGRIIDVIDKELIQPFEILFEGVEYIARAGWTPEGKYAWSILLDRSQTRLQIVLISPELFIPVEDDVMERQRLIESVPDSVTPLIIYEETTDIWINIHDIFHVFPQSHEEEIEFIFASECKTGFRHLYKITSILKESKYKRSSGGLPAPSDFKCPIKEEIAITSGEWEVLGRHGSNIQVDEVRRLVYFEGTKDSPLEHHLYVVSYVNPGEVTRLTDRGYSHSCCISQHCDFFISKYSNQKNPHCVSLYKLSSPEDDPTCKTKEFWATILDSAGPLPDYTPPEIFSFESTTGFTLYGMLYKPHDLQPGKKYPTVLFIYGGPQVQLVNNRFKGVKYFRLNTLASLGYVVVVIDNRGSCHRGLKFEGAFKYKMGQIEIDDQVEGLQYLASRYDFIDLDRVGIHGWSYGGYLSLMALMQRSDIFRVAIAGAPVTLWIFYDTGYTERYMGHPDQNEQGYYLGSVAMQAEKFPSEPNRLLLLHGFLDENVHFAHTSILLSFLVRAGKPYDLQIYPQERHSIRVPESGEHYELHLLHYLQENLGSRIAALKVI

Dipeptidyl peptidase 4 = Dipeptidyl peptidase 4 (Homo sapiens, UniProt P27487)
Dipeptidyl peptidase 4, sequence (P27487 whole entry): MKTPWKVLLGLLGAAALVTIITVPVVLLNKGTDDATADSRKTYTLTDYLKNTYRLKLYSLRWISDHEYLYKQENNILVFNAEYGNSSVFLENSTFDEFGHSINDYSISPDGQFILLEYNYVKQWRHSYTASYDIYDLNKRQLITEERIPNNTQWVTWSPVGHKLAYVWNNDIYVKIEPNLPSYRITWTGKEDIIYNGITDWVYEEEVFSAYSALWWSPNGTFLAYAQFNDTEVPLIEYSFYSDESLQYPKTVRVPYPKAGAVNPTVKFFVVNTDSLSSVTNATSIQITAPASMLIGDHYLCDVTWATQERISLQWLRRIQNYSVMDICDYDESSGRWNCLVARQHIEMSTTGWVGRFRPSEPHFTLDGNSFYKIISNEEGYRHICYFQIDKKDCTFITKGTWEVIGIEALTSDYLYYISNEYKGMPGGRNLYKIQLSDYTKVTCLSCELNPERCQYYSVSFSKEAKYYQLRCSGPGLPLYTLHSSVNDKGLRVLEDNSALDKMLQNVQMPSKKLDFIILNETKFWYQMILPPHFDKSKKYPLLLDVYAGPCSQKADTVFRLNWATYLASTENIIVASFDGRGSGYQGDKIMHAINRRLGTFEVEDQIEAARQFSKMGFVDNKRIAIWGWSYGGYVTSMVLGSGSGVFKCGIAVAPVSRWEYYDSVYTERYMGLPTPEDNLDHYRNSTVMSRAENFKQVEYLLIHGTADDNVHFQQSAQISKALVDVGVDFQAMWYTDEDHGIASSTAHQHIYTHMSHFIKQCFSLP

Dipeptidyl peptidase 2 = Dipeptidyl peptidase 2 (Homo sapiens, UniProt Q9UHL4); test: Inhibition of QPP
Dipeptidyl peptidase 9 = Dipeptidyl peptidase 9 (Homo sapiens, UniProt Q86TI2); test: Inhibition of DPP9
Dipeptidyl peptidase 9, sequence (Q86TI2 whole entry): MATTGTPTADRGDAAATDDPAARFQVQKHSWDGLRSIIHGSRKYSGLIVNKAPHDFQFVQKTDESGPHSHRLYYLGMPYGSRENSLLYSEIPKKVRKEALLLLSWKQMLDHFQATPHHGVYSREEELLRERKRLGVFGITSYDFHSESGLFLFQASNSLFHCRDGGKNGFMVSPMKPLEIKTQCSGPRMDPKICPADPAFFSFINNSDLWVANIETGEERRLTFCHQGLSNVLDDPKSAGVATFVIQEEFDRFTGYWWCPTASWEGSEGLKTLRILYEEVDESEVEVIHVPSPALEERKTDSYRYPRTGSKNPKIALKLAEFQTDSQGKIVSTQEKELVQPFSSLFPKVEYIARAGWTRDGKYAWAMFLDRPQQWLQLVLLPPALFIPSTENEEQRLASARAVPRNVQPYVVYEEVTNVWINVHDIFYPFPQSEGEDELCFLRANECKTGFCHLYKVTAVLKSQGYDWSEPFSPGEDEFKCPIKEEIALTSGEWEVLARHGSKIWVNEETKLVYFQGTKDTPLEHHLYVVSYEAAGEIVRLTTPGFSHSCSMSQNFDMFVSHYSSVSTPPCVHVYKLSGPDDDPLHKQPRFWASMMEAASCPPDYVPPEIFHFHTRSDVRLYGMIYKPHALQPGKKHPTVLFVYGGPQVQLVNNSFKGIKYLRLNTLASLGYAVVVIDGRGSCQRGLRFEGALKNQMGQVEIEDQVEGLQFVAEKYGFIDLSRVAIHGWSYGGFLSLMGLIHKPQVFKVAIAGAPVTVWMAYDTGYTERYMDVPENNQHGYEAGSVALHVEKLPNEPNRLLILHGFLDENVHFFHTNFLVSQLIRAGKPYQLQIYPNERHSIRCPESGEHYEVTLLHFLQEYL

Mus musculus [4] = test: Reduction of blood glucose excursion in lean mouse at 0.1 mg/kg by oral glucose tolerance test; format: functional; parameters: scale not given: the % may be the effect or the level left
Mus musculus [5] = test: Reduction of blood glucose excursion in lean mouse at 1.0 mg/kg by oral glucose tolerance test; format: functional; parameters: scale not given: the % may be the effect or the level left
[6] = Oral bioavailability in dog; format: ADME, organism-based, Canis lupus familiaris; settings: in vivo
[7] = Oral bioavailability in rhesus monkey; format: ADME, organism-based, Macaca mulatta; settings: in vivo
[8] = Half life in dog; format: ADME, organism-based, Canis lupus familiaris; settings: in vivo
[9] = Plasma clearance in dog; format: ADME, organism-based, Canis lupus familiaris
[10] = Plasma clearance in rhesus monkey; format: ADME, organism-based, Macaca mulatta
[11] = Half life in rhesus monkey; format: ADME, organism-based, Macaca mulatta; settings: in vivo
Mus musculus [12] = test: Reduction of blood glucose excursion in lean mouse at 3.0 mg/kg by oral glucose tolerance test; format: functional; parameters: scale not given: the % may be the effect or the level left
Rattus norvegicus = organism: Rattus norvegicus; test: as §1; format: ADME, organism-based; settings: in vivo

Compound	bioavailability [1]	clearance [2]	half-life [3]	IC50 (Dipeptidyl peptidase 8)	IC50 (Dipeptidyl peptidase 4)	IC50 (Dipeptidyl peptidase 2)	IC50 (Dipeptidyl peptidase 9)	also measured
N[C@@H](CC(=O)N1CCn2nc(C(F)(F)F)nc2[C@@H]1C(F)C1CC1)Cc1cc(F)c(F)cc1F (stereo in doubt; 34d)				> 100 µM	0.011 µM	4.1 µM		
N[C@@H](CC(=O)N1CCn2nc(C(F)(F)F)nc2C1)Cc1cc(F)c(F)cc1F	100%	60 mL/min/kg	3.6 h				> 100 µM	
N[C@@H](CC(=O)N1CCn2nc(-c3ccccc3)nc2C1)Cc1cc(F)c(F)cc1F							> 100 µM	
N[C@@H](CC(=O)N1CCn2nc(C(F)(F)F)nc2[C@@H]1C(O)C1CC1)Cc1cc(F)c(F)cc1F (some centres not stated) [listing 1 of 2 here]	63%	97 mL/min/kg	3.9 h				> 100 µM	
N[C@@H](CC(=O)N1CCn2nc(C3CC3)nc2C1)Cc1cc(F)c(F)cc1F				> 100 µM		> 100 µM	> 100 µM	
N[C@@H](CC(=O)N1CCn2ncnc2C1)Cc1cc(F)c(F)cc1F				> 100 µM	0.1 µM	> 100 µM	> 100 µM	
N[C@@H](CC(=O)N1CCn2nc(C(F)(F)F)nc2[C@@H]1C(F)C1CC1)Cc1cc(F)c(F)cc1F (stereo in doubt; 34c)				> 100 µM	0.018 µM	5.77 µM		
N[C@@H](CC(=O)N1CCn2c(nnc2C(F)(F)F)C1)Cc1cc(F)c(F)cc1F [SITAGLIPTIN]		60 mL/min/kg						bioavailability [6]: 100%; bioavailability [7]: 68%; half-life [8]: 4.9 h; clearance [9]: 6 mL/min/kg; clearance [10]: 28 mL/min/kg; half-life [11]: 3.7 h; t1/2 (Rattus norvegicus): 1.7 h
N[C@@H](CC(=O)N1CCn2nc(C(F)(F)F)nc2[C@@H]1C(O)C1CC1)Cc1cc(F)c(F)cc1F (some centres not stated) [listing 2 of 2 here]	51%	91 mL/min/kg	5.1 h				> 100 µM	

The next lines start with results.

bioavailability [1]	clearance [2]	half-life [3]	IC50 (Dipeptidyl peptidase 8)	IC50 (Dipeptidyl peptidase 4)	IC50 (Dipeptidyl peptidase 2)	IC50 (Dipeptidyl peptidase 9)	Compound	also measured
32%	76 mL/min/kg	2.7 h					N[C@@H](CC(=O)N1CCn2nc(C(F)(F)F)nc2[C@H]1Cc1ccc(F)cc1)Cc1cc(F)c(F)cc1F	
			> 100 µM	0.002 µM	22 µM	> 100 µM	N[C@@H](CC(=O)N1CCn2nc(C(F)(F)F)nc2[C@H]1Cn1cncn1)Cc1cc(F)c(F)cc1F	
74%	68 mL/min/kg	4 h	> 100 µM		25 µM	> 100 µM	C[C@@H]1c2nc(C(F)(F)F)nn2CCN1C(=O)C[C@H](N)Cc1cc(F)c(F)cc1F	Activity (Mus musculus [4]): 14%; Activity (Mus musculus [5]): 39%; bioavailability [6]: 67%; bioavailability [7]: 65%; half-life [8]: 26 h; clearance [9]: 1 mL/min/kg; clearance [10]: 16 mL/min/kg; half-life [11]: 7.7 h; Activity (Mus musculus [12]): 44%
62%	142 mL/min/kg	2.3 h	> 100 µM		9.6 µM	> 100 µM	N[C@@H](CC(=O)N1CCn2nc(C(F)(F)F)nc2C1Cn1cccn1)Cc1cc(F)c(F)cc1F (some centres not stated)	
			> 100 µM		72 µM	> 100 µM	C[C@H]1c2nc(C(F)(F)F)nn2CCN1C(=O)C[C@H](N)Cc1cc(F)c(F)cc1F	
13%	129 mL/min/kg	2.8 h	> 100 µM	0.005 µM	49 µM	> 100 µM	N[C@@H](CC(=O)N1CCn2nc(C(F)(F)F)nc2C1Cn1cncn1)Cc1cc(F)c(F)cc1F (some centres not stated)	
7.1%	97 mL/min/kg	9 h	> 100 µM		26 µM		N[C@@H](CC(=O)N1CCn2nc(C(F)(F)F)nc2C1Cn1ccnc1)Cc1cc(F)c(F)cc1F (some centres not stated)	
